Test [1] has as its target Nicotinic acetylcholine receptor alpha9/alpha10 (Rattus norvegicus, UniProt P43144+Q9JLB5). Briefly: Antagonist activity at rat alpha9alpha10 nACh receptor expressed in Xenopus oocyte assessed as inhibition of acetylcholine-induced response at -70 mV holding potential by voltage-clamp based electrophysiological assay. The class given is cell-based.
Test [2] deals with Neuronal acetylcholine receptor subunit alpha-7 (Rattus norvegicus, UniProt Q05941). Briefly: Antagonist activity at rat alpha7 nACh receptor expressed in Xenopus oocyte assessed as inhibition of acetylcholine-induced response at -70 mV holding potential by voltage-clamp based electrophysiological assay. The class given is cell-based.
Chain of Neuronal acetylcholine receptor subunit alpha-7 (Q05941 whole entry): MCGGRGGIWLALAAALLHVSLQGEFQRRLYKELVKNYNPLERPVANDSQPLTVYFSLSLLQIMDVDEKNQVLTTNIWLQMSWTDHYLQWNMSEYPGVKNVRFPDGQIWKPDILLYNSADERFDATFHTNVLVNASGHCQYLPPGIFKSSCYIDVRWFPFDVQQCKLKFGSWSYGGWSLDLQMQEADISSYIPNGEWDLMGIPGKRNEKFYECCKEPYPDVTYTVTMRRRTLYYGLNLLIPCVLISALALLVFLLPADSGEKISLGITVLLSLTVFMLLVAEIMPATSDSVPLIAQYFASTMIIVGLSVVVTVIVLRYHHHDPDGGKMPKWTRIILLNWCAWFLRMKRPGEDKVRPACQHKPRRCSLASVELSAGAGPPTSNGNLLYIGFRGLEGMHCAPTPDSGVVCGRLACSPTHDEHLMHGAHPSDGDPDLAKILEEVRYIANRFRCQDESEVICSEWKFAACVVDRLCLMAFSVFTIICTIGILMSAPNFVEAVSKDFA

Where a SMILES comes first, the peptide text is derived from it.

For ten compounds, IC50 results are on record in ChEMBL document CHEMBL5346973 (J Med Chem, 2023).

Chain of Nicotinic acetylcholine receptor alpha9/alpha10 (P43144 whole entry): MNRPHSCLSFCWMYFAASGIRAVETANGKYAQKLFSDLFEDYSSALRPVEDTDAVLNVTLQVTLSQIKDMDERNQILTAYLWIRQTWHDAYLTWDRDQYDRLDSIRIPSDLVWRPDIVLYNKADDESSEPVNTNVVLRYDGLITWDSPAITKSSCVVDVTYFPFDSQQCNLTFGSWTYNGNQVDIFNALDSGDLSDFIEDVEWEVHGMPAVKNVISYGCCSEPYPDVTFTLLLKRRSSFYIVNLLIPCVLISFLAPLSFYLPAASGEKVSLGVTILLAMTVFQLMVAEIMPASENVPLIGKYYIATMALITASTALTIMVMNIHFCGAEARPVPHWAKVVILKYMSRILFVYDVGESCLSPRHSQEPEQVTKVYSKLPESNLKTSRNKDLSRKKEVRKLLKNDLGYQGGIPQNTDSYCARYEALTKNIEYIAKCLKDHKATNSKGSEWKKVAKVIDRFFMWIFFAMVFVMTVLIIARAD
Chain of Nicotinic acetylcholine receptor alpha9/alpha10 (Q9JLB5 whole entry): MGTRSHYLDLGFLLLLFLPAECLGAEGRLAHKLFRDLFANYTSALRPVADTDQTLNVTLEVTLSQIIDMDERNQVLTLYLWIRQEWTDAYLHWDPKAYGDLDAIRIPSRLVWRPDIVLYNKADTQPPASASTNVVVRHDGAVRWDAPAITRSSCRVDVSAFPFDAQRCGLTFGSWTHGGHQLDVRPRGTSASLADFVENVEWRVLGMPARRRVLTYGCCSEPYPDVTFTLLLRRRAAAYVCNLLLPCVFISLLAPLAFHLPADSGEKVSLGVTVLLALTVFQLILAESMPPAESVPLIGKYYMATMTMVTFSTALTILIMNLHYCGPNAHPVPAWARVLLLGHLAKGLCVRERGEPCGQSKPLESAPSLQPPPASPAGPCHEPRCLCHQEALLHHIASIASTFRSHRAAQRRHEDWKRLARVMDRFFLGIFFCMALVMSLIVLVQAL

As for `CC[C@H](C)[C@@H]1NC(=O)[C@H](CCCNC(=N)N)NC(=O)[C@H](CCCNC(=N)N)NC(=O)[C@@H](NC(=O)[C@H](Cc2ccc(O)cc2)NC(=O)[C@H](CCCNC(=N)N)NC(=O)[C@H](CCCNC(=N)N)NC(=O)[C@H](CCCNC(=N)N)NC(=O)[C@H](CCCNC(=N)N)NC(=O)[C@H](CC(=O)O)NC(=O)[C@H](Cc2ccc(O)cc2)NC(=O)[C@@H]2CCCN2C(=O)[C@H](C)NC(=O)[C@H](CCCNC(=N)N)NC(=O)[C@@H]2CSSC[C@H](NC(=O)[C@@H](N)[C@@H](C)O)C(=O)N[C@@H](CCCNC(=N)N)C(=O)N[C@@H](CO)C(=O)N[C@@H](CO)C(=O)NCC(=O)N[C@@H](CCCNC(=N)N)C(=O)N[C@@H](Cc3ccc(O)cc3)C(=O)N2)CSSC[C@@H](C(=O)N[C@H](C(=O)O)C(C)C)NC(=O)[C@H](C)NC(=O)[C@H](CC(=O)O)NC(=O)[C@H]([C@@H](C)O)NC1=O` (HELM PEPTIDE1{T.C.R.S.S.G.R.Y.C.R.A.P.Y.D.R.R.R.R.Y.C.R.R.I.T.D.A.C.V}$PEPTIDE1,PEPTIDE1,2:R3-9:R3|PEPTIDE1,PEPTIDE1,20:R3-27:R3$$$V2.0), the IC50 in test [1] worked out at 26 nM; in test [2] it was 2060 nM.

Take `CC[C@H](C)[C@@H]1NC(=O)[C@H](CCCNC(=N)N)NC(=O)[C@H](CCCNC(=N)N)NC(=O)[C@@H]2CSSC[C@H](NC(=O)[C@H](C)NC(=O)[C@H](CCCNC(=N)N)NC(=O)CNC(=O)[C@H](CO)NC(=O)[C@H](CO)NC(=O)[C@H](CCCNC(=N)N)NC(=O)[C@@H](NC(=O)[C@@H](N)[C@@H](C)O)CSSC[C@@H](C(=O)N[C@H](C(=O)O)C(C)C)NC(=O)[C@H](C)NC(=O)[C@H](CC(=O)O)NC(=O)[C@H]([C@@H](C)O)NC1=O)C(=O)N[C@@H](CCCNC(=N)N)C(=O)N[C@@H](CO)C(=O)N1CCC[C@H]1C(=O)N[C@@H](Cc1ccc(O)cc1)C(=O)N[C@@H](CC(=O)O)C(=O)N[C@@H](CCCNC(=N)N)C(=O)N[C@@H](CCCNC(=N)N)C(=O)N[C@@H](CCCNC(=N)N)C(=O)N[C@@H](CCCNC(=N)N)C(=O)N[C@@H](Cc1ccc(O)cc1)C(=O)N2` (HELM PEPTIDE1{T.C.R.S.S.G.R.A.C.R.S.P.Y.D.R.R.R.R.Y.C.R.R.I.T.D.A.C.V}$PEPTIDE1,PEPTIDE1,2:R3-27:R3|PEPTIDE1,PEPTIDE1,9:R3-20:R3$$$V2.0): the IC50 came out at 120 nM in test [1] and 7330 nM in test [2].

Turning to `CC[C@H](C)[C@@H]1NC(=O)[C@H](CCCNC(=N)N)NC(=O)[C@H](CCCNC(=N)N)NC(=O)[C@@H](NC(=O)[C@H](Cc2ccc(O)cc2)NC(=O)[C@H](CCCNC(=N)N)NC(=O)[C@H](CCCNC(=N)N)NC(=O)[C@H](CCCNC(=N)N)NC(=O)[C@H](CCCNC(=N)N)NC(=O)[C@H](CC(=O)O)NC(=O)[C@H](Cc2ccc(O)cc2)NC(=O)[C@@H]2CCCN2C(=O)[C@H](CO)NC(=O)[C@H](CCCNC(=N)N)NC(=O)[C@@H]2CSSC[C@H](NC(=O)[C@@H](N)[C@@H](C)O)C(=O)N[C@@H](CCCNC(=N)N)C(=O)N[C@@H](C)C(=O)N[C@@H](CO)C(=O)NCC(=O)N[C@@H](CCCNC(=N)N)C(=O)N[C@@H](Cc3ccc(O)cc3)C(=O)N2)CSSC[C@@H](C(=O)N[C@H](C(=O)O)C(C)C)NC(=O)[C@H](C)NC(=O)[C@H](CC(=O)O)NC(=O)[C@H]([C@@H](C)O)NC1=O`, the IC50 in test [1] is 14 nM; in test [2] it was 1420 nM.

Turning to `CC[C@H](C)[C@@H]1NC(=O)[C@H](CCCNC(=N)N)NC(=O)[C@H](CCCNC(=N)N)NC(=O)[C@@H](NC(=O)[C@H](Cc2ccc(O)cc2)NC(=O)[C@H](CCCNC(=N)N)NC(=O)[C@H](CCCNC(=N)N)NC(=O)[C@H](CCCNC(=N)N)NC(=O)[C@H](CCCNC(=N)N)NC(=O)[C@H](CC(=O)O)NC(=O)[C@H](Cc2ccc(O)cc2)NC(=O)[C@@H]2CCCN2C(=O)[C@H](CO)NC(=O)[C@H](CCCNC(=N)N)NC(=O)[C@@H]2CSSC[C@H](NC(=O)[C@@H](N)[C@@H](C)O)C(=O)N[C@@H](CCCNC(=N)N)C(=O)N[C@@H](CO)C(=O)N[C@@H](CO)C(=O)NCC(=O)N[C@@H](CCCNC(=N)N)C(=O)N[C@@H](Cc3ccc(O)cc3)C(=O)N2)CSSC[C@@H](C(=O)N[C@@H](C)C(=O)O)NC(=O)[C@H](C)NC(=O)[C@H](CC(=O)O)NC(=O)[C@H]([C@@H](C)O)NC1=O`, the values for the IC50 in test [1] and in test [2] were 15 nM and 760 nM, respectively.

With `CC(C)[C@H](NC(=O)[C@@H]1CSSC[C@H](NC(=O)[C@H](Cc2ccc(O)cc2)NC(=O)[C@H](CCCNC(=N)N)NC(=O)[C@H](CCCNC(=N)N)NC(=O)[C@H](CCCNC(=N)N)NC(=O)[C@H](CCCNC(=N)N)NC(=O)[C@H](CC(=O)O)NC(=O)[C@H](Cc2ccc(O)cc2)NC(=O)[C@@H]2CCCN2C(=O)[C@H](CO)NC(=O)[C@H](CCCNC(=N)N)NC(=O)[C@@H]2CSSC[C@H](NC(=O)[C@@H](N)[C@@H](C)O)C(=O)N[C@@H](CCCNC(=N)N)C(=O)N[C@@H](CO)C(=O)N[C@@H](CO)C(=O)NCC(=O)N[C@@H](CCCNC(=N)N)C(=O)N[C@@H](Cc3ccc(O)cc3)C(=O)N2)C(=O)N[C@@H](CCCNC(=N)N)C(=O)N[C@@H](CCCNC(=N)N)C(=O)N[C@@H](C)C(=O)N[C@@H]([C@@H](C)O)C(=O)N[C@@H](CC(=O)O)C(=O)N[C@@H](C)C(=O)N1)C(=O)O`, the IC50 in test [1] was determined as 16 nM; in test [2], 640 nM.

In the case of `CC[C@H](C)[C@@H]1NC(=O)[C@H](CCCNC(=N)N)NC(=O)[C@H](CCCNC(=N)N)NC(=O)[C@@H](NC(=O)[C@H](Cc2ccc(O)cc2)NC(=O)[C@H](CCCNC(=N)N)NC(=O)[C@H](CCCNC(=N)N)NC(=O)[C@H](CCCNC(=N)N)NC(=O)[C@H](CCCNC(=N)N)NC(=O)[C@H](CC(=O)O)NC(=O)[C@H](Cc2ccc(O)cc2)NC(=O)[C@@H]2CCCN2C(=O)[C@H](CO)NC(=O)[C@H](CCCNC(=N)N)NC(=O)[C@@H]2CSSC[C@H](NC(=O)[C@@H](N)[C@@H](C)O)C(=O)N[C@@H](CCCNC(=N)N)C(=O)N[C@@H](CO)C(=O)N[C@@H](CO)C(=O)NCC(=O)N[C@@H](CCCNC(=N)N)C(=O)N[C@@H](Cc3ccc(O)cc3)C(=O)N2)CSSC[C@@H](C(=O)N[C@H](C(=O)O)C(C)C)NC(=O)[C@H](C)NC(=O)[C@@H](C)NC(=O)[C@H]([C@@H](C)O)NC1=O`, the IC50 in test [1] worked out at 13 nM; in test [2] it was 6690 nM.

`CC[C@H](C)[C@@H]1NC(=O)[C@H](CCCNC(=N)N)NC(=O)[C@H](CCCNC(=N)N)NC(=O)[C@@H]2CSSC[C@H](NC(=O)[C@H](Cc3ccc(O)cc3)NC(=O)[C@H](CCCNC(=N)N)NC(=O)CNC(=O)[C@H](C)NC(=O)[C@H](CO)NC(=O)[C@H](CCCNC(=N)N)NC(=O)[C@@H](NC(=O)[C@@H](N)[C@@H](C)O)CSSC[C@@H](C(=O)N[C@H](C(=O)O)C(C)C)NC(=O)[C@H](C)NC(=O)[C@H](CC(=O)O)NC(=O)[C@H]([C@@H](C)O)NC1=O)C(=O)N[C@@H](CCCNC(=N)N)C(=O)N[C@@H](CO)C(=O)N1CCC[C@H]1C(=O)N[C@@H](Cc1ccc(O)cc1)C(=O)N[C@@H](CC(=O)O)C(=O)N[C@@H](CCCNC(=N)N)C(=O)N[C@@H](CCCNC(=N)N)C(=O)N[C@@H](CCCNC(=N)N)C(=O)N[C@@H](CCCNC(=N)N)C(=O)N[C@@H](Cc1ccc(O)cc1)C(=O)N2` (HELM PEPTIDE1{T.C.R.S.A.G.R.Y.C.R.S.P.Y.D.R.R.R.R.Y.C.R.R.I.T.D.A.C.V}$PEPTIDE1,PEPTIDE1,2:R3-27:R3|PEPTIDE1,PEPTIDE1,9:R3-20:R3$$$V2.0): the IC50 was 60 nM in test [1] and 6330 nM in test [2].

`CC[C@H](C)[C@@H]1NC(=O)[C@H](CCCNC(=N)N)NC(=O)[C@H](CCCNC(=N)N)NC(=O)[C@@H]2CSSC[C@H](NC(=O)[C@H](Cc3ccc(O)cc3)NC(=O)[C@H](CCCNC(=N)N)NC(=O)CNC(=O)[C@H](CO)NC(=O)[C@H](CO)NC(=O)[C@H](CCCNC(=N)N)NC(=O)[C@@H](NC(=O)[C@@H](N)[C@@H](C)O)CSSC[C@@H](C(=O)N[C@H](C(=O)O)C(C)C)NC(=O)[C@H](C)NC(=O)[C@H](CC(=O)O)NC(=O)[C@H]([C@@H](C)O)NC1=O)C(=O)N[C@@H](CCCNC(=N)N)C(=O)N[C@@H](CO)C(=O)N[C@@H](C)C(=O)N[C@@H](Cc1ccc(O)cc1)C(=O)N[C@@H](CC(=O)O)C(=O)N[C@@H](CCCNC(=N)N)C(=O)N[C@@H](CCCNC(=N)N)C(=O)N[C@@H](CCCNC(=N)N)C(=O)N[C@@H](CCCNC(=N)N)C(=O)N[C@@H](Cc1ccc(O)cc1)C(=O)N2` (HELM PEPTIDE1{T.C.R.S.S.G.R.Y.C.R.S.A.Y.D.R.R.R.R.Y.C.R.R.I.T.D.A.C.V}$PEPTIDE1,PEPTIDE1,2:R3-27:R3|PEPTIDE1,PEPTIDE1,9:R3-20:R3$$$V2.0): the IC50 in test [1] stood at 10 nM; in test [2], 1780 nM.

`CC[C@H](C)[C@@H]1NC(=O)[C@H](CCCNC(=N)N)NC(=O)[C@H](CCCNC(=N)N)NC(=O)[C@@H]2CSSC[C@H](NC(=O)[C@H](Cc3ccc(O)cc3)NC(=O)[C@H](CCCNC(=N)N)NC(=O)CNC(=O)[C@H](CO)NC(=O)[C@H](CO)NC(=O)[C@H](CCCNC(=N)N)NC(=O)[C@@H](NC(=O)[C@@H](N)[C@@H](C)O)CSSC[C@@H](C(=O)N[C@H](C(=O)O)C(C)C)NC(=O)[C@H](C)NC(=O)[C@H](CC(=O)O)NC(=O)[C@H](C)NC1=O)C(=O)N[C@@H](CCCNC(=N)N)C(=O)N[C@@H](CO)C(=O)N1CCC[C@H]1C(=O)N[C@@H](Cc1ccc(O)cc1)C(=O)N[C@@H](CC(=O)O)C(=O)N[C@@H](CCCNC(=N)N)C(=O)N[C@@H](CCCNC(=N)N)C(=O)N[C@@H](CCCNC(=N)N)C(=O)N[C@@H](CCCNC(=N)N)C(=O)N[C@@H](Cc1ccc(O)cc1)C(=O)N2`: the values for the IC50 in test [1] and in test [2] were 36 nM and 7130 nM, respectively.

On to `CC[C@H](C)[C@@H]1NC(=O)[C@H](CCCNC(=N)N)NC(=O)[C@H](CCCNC(=N)N)NC(=O)[C@@H](NC(=O)[C@H](Cc2ccc(O)cc2)NC(=O)[C@H](CCCNC(=N)N)NC(=O)[C@H](CCCNC(=N)N)NC(=O)[C@H](CCCNC(=N)N)NC(=O)[C@H](CCCNC(=N)N)NC(=O)[C@H](CC(=O)O)NC(=O)[C@H](Cc2ccc(O)cc2)NC(=O)[C@H](C)NC(=O)[C@H](CO)NC(=O)[C@H](CCCNC(=N)N)NC(=O)[C@@H]2CSSC[C@H](NC(=O)[C@@H](N)[C@@H](C)O)C(=O)N[C@H](CCCNC(=N)N)C(=O)N[C@@H](CO)C(=O)N[C@@H](CO)C(=O)NCC(=O)N[C@@H](CCCNC(=N)N)C(=O)N[C@@H](Cc3ccc(O)cc3)C(=O)N2)CSSC[C@@H](C(=O)N[C@H](C(=O)O)C(C)C)NC(=O)[C@H](C)NC(=O)[C@H](CC(=O)O)NC(=O)[C@H]([C@@H](C)O)NC1=O`, for which the figures for the IC50 in test [1] and in test [2] were 16 nM and 2250 nM, respectively.

A word on the IC50: it is the concentration needed to halve the response being measured.
